Columns and labels:
P815 target cells = assay: VITAL cytotoxicity assay, human CD8+ CTLs with P815 target cells; type: cell-based; conditions: 10 μM, pre-incubation 40-50 mins, vs carrier control
Procedure: (§1) FIG. 3. L-type Cav channel agonists increase expression of GLI1 and enhance specific cell killing by human CD8+ CTLs. Naïve human CD8+ T cells were purified from the buffy coat layer of blood isolated from healthy donors, and were stimulated using ImmunoCult™ CD3/CD28/CD2 human T-Cell Activator and again restimulated at day 10 for 3 days. (A) Human CTLs were restimulated on day 15-20 for 24 h with plate-bound anti-CD3 in the presence of 10 μM of FPL64176 or carrier control before RNA was extracted for qRT-PCR analysis. n=1 healthy donor. TBP is used as a reference gene. (B) Updated graph of (A) showing n=3 independent experiments/healthy donors. Gli1 expression is normalised to carrier. (C) Between day 16 and 24, CD8+ T cells were co-cultured with P815 target cells at indicated effector to target ratios and subjected to a VITAL cytotoxicity assay in the presence of 10 μM FPL64176 (squares) or carrier control (circles). (D) Same data as (C) represented differently. […] Error bars indicate SD. p values were calculated using an unpaired two-tailed Student's t test (B) or a two-way ANOVA (C/D). * indicates p<0.05, ** indicates p<0.01, **** indicates p<0.0001.
A VITAL assay was subsequently performed to assess the role of L-type Cav agonists with regards to specific tumour cell killing by human CD8+ CTLs. […]

GLI1 = GLI1 mRNA expression by qRT-PCR in human CD8+ T cells and CTLs; type: cell-based
Procedure: as §1, with “carrier.” for “carrier. (C) Between day 16 and 24, CD8+ T cells were co-cultured with P815 target cells at indicated effector to target ratios and subjected to a VITAL cytotoxicity assay in the presence of 10 μM FPL64176 (squares) or carrier control (circles). (D) Same data as (C) represented differently.”
In order to assess the role of L-type Cav channel agonists in controlling the activation and effector function of human CD8+ T cells, naive primary human CD8+ T cells were purified from the buffy coat layer of blood isolated from healthy donors. Cells were stimulated using ImmunoCult™ Human CD3/CD28/CD2 T Cell Activator beads for 24 hours in the presence of 5 or 10 μM FPL 64176 or carrier control, and GLI1 mRNA expression was assessed by qRT-PCR. […]

[1] = test system: L-type voltage gated Ca^2+ channel; assay: Calcium flux after TCR crosslinking in murine CD8+ CTLs; type: cell-based
Source text: FIG. 14. […] Murine CD8^+ CTLs were loaded with Calcium Sensor Dye eFluor™ 514, anti-CD3ε antibodies and calcium channel inhibitors/agonist. Other Calcium channels expressed in CD8 T cells were inhibited: “Block”=BTP2 inhibits CRAC channels downstream of the TCR, and BCTC inhibits TRPV channels. […] T cell receptor (TCR) crosslinking was induced 30 s after the start of sample acquisition by adding antibodies to crosslink the TCR. Arrows indicate the initiation of the calcium flux following TCR crosslinking. The line indicates the baseline fluorescence of the Calcium Sensor Dye eFluor™ 514. Data shown is representative of two independent experiments.

K562 target cells = assay: LDH killing assay, NK-92 cells with K562 target cells; type: cell-based, human; conditions: 10 μM, vs carrier control
Procedure: FIG. 5. L-type Cav channel agonists increase GLI1 expression in the human NK cell line NK-92 and promote specific tumour cell killing. (A) NK-92 cells were stimulated using an anti-NKp46 mAb for 4 hours in the presence of 10 μM FPL 64176, and GLI1 expression was assessed using qRT-PCR. Data is n=4 independent experiments. (B) NK-92 cells were stimulated using an anti-NKp46 mAb for 4 hours in the presence of 100 μM Bay K8644, and GLI1 expression was assessed using qRT-PCR. Data is n=3 independent experiments. […]
FIG. 7. […] Killing of K562 tumour cells was assessed after 24 h by LDH killing assay. […]
In order to establish whether an increase in GLI1 expression is correlated with an increase in NK-92 cell effector function, NK-92 were co-cultured with K562 myelogenous leukaemia cells in the presence of 10 μM FPL 64176 or carrier control, at the effector:target ratios indicated in FIG. 5C. Cell killing was assessed using the LDH assay, as previously described.
To determine if the increased specific cell killing seen in Gorlin patients can be achieved by engineering cells to express a gain-of-function mutation resulting in increased Gli1 signalling, NK-92 cells were engineered to stably express the I756T GOF mutation in Cav1.4. […] Killing of K562 tumour cells was assessed after 24 h by LDH killing assay. […]

## COC(=O)c1c(C)[nH]c(C)c1C(=O)c1ccccc1Cc1ccccc1 [FPL 64176]
P815 target cells
  improvement of cell killing: ~70%
GLI1; human CD8+ CTLs restimulated day 15-20 with plate-bound anti-CD3, 10 μM, 24 hours (FIG. 3B)
  GLI1 expression: increase
GLI1; naive human CD8+ T cells, CD3/CD28/CD2 activator 24 hours, 5 or 10 μM (FIG. 3A)
  GLI1 expression: dose-dependent increase
[1]
  initiation of Ca^2+ flux following TCR crosslinking: accelerates
[1]; CRAC and TRPV channels blocked with BTP2 and BCTC
  Cav-mediated Ca^2+ flux: specifically increases
K562 target cells
  target cell killing by NK-92 cells: enhanced
